According to US20120035187A1 (priority 2009, published 2012):

Assays:
[1] = Peroxyl radical-scavenging activity, ESR (AAPH)
Description: Stock solutions, prepared by dissolving NK-4, NK-19, NK-53, NK-100, and NK-557 in DMSO, were respectively diluted with 0.1 M phosphate buffer to give concentrations of […] higher than those in Table 15 and used as test sample solutions. To 50 μl of 0.1 M phosphate buffer (pH 7.4), 50 μl of 180 mM DMPO ([…]) commercialized by Dojindo Laboratories, Kumamoto, Japan, 50 μl of any one of the test sample solutions, and 50 μl of 100 mM AAPH, commercialized by Wako Pure Chemical Industries, Osaka, Japan, were added, mixed for 10 seconds using a vortex mixer and allowed to react in an incubator controlled at 37° for two minutes and 50 seconds. After 30 seconds from completion of the reaction, the resulting reaction mixture was subjected to ESR measurement.
The reaction mixture for measuring hydroxyl or peroxyl radicals was poured into a flat quartz cell for ESR, set to “FREE RADICAL MONITOR JES-FR30”, an ESR apparatus commercialized by JOEL Ltd., Tokyo, Japan, and ESR was measured according to manual manner. The residual ratio of peroxyl radical (%) was determined as a relative value by defining the ESR value, obtained by using 0.1 M phosphate buffer as a substitute of the test sample solution, as 100. The results are in Tables 14 and 15. […] Therefore, the IC50 of edaravone was determined by another test using its higher concentration, and the result is also shown in Table 14. The conditions of the ESR measurement were set as follows: […]

[2] = test system: ICR mice injected with amyloid β fragment; assay: Novelty object recognition test, mouse injected with amyloid β fragment (Alzheimer's dementia model); format: in vivo; details: for adverse effect / novelty object recognition test (in words): mice injected with amyloid β fragment; for adverse effect: i.p. once a day over 13 days; for novelty object recognition test (in words): vs amyloid β fragment alone; for Index for object discrimination: mouse administered with amyloid β fragment
Description: One hundred of ICR mice (male, five weeks of age, body weight of 25 to 30 g, commercialized by Charles Liver Laboratories Japan Inc., Kanagawa, Japan) were randomly divided into 10 groups, each consisting 10 heads, and raised separately until the experiment was terminated. […] A micro syringe with an […] stainless needle (3 mm length) was used for injection. The injection site was determined by confirming the staining at right-and-left lateral ventricles of the frontal section, dorsal third ventricle, and ventral third ventricle by injecting an Evans' Blue solution (0.3 μg/0.3 μl) in place of the solution of amyloid β fragment.
The test, which consists of three parts of acclimation, practicing trial, and holding trial, was operated at six to eight days after administering amyloid β fragment into the subjects' ventricles. The experiment apparatus (40 cm in depth, 30 cm in width and 30 cm in height), in which the floor was paved with wood tips, was placed in a noiseless place under an illumination of about 1,000 lux. On the 6th day after the administration, a mouse was placed in the center of the apparatus without seeking object and allowed to seek freely for 10 minutes (acclimation). After 24 hours (on the 7th day after the administration), two objects (objects A and B) were placed in the apparatus at a position 10-cm apart from the lateral side, and the mouse was placed in the center of the apparatus and allowed to seek freely for 10 minutes (practicing trial). After 24 hours (on 8th day after the administration), object A (memorized object) sought by the mouse on the previous day was placed at the same position of object A as placed on the previous day, and object C (novel object) different from object B used on the previous day […] of object B as placed on the previous day, and then the mouse was placed in the center of the apparatus and allowed to seek freely for 10 minutes (holding trial). When the mouse directed its muffle close to the object within 2 cm apart from the object or allowed its muffle to contact with the object, the mouse was judged to be seeking, and the seeking time thereof was measured with a stopwatch. The object discrimination index [={(seeking time for novel object)−(seeking time for memorized object)}/{(seeking time for novel object)+(seeking time for memorized object)}] was calculated. The object discrimination index means the ratio of increase in seeking time for novel object to the total seeking time, which becomes longer when the memory of the once sought object is more strongly held and becomes shorter when the memory is more weakly held.

[3] = test system: microglia; assay: NO production from microglia in the presence of LPS; format: cell-based, rat; details: concrete data not shown
[4] = compound concentration 25 μg/ml
[5] = compound concentration 50 μg/ml
[6] = 500 μg/kg body weight i.p. once a day

Compound	IC50 (μg/ml) of peroxyl radical-scavenging activity [1]	Residual ratio of peroxyl radical (%) ([1]; compound concentration 5 μg/ml)	Residual ratio of peroxyl radical (%) [1, 4] [%]	Residual ratio of peroxyl radical (%) [1, 5] [%]	adverse effect [2]	novelty object recognition test (in words) [2, 6]	Index for object discrimination ([2]; dose 50 μg/kg body weight)	Index for object discrimination ([2]; dose 500 μg/kg body weight)	suppressing NO production from microglia [3]	novelty object recognition test (in words) ([2]; 50 μg/kg body weight i.p. once a day)	Index for object discrimination ([2]; dose 5 μg/kg body weight)
CCN1C=CC(=CC=C(C=Cc2cc[n+](CC)c3ccccc23)c2cc[n+](CC)c3ccccc23)c2ccccc21.[I-].[I-] [NK-4]	4.7 µg/mL	46 ± 9	17 ± 1	16 ± 0	No adverse effect	significant improvement	0.15 ± 0.07	0.41 ± 0.08	actions of suppressing NO production	–	–
CCCCN1C=C/C(=C/C=C(/C=C/c2cc[n+](CCCC)c3ccccc23)c2cc[n+](CCCC)c3ccccc23)c2ccccc21 [NK-26]	–	–	–	–	No adverse effect	–	0.19 ± 0.07	0.11 ± 0.08	actions of suppressing NO production	significant improvement	0.05 ± 0.08
CCN1/C(=C/C=C(/C=C/c2sc3ccccc3[n+]2CC)c2sc3ccccc3[n+]2CC)Sc2ccccc21.[I-].[I-] [NK-100]	50< μg/ml	86 ± 15	86 ± 15	76 ± 7	–	–	–	–	–	–	–
CCCN1C=CC(=CC=C(C=Cc2cc[n+](CCC)c3ccccc23)c2cc[n+](CCC)c3ccccc23)c2ccccc21.[I-].[I-] [NK-234]	–	–	–	–	No adverse effect	significant improvement	–	0.29 ± 0.07	actions of suppressing NO production	–	–
CC[n+]1ccccc1/C=C/c1ccc(N(C)C)cc1 [NK-557]	50< μg/ml	90 ± 9	58 ± 5	66 ± 8	–	–	–	–	–	–	–
